Data reported in patent US20050130949A1, “Cyclic polyamine compounds for cancer therapy” (priority 2000, published 2005).

Assays:
[1] = system: LnCap; experiment: MTT assay, cell growth inhibition, LnCap; type: cell-based; conditions: Homo sapiens, 144 h, 6 days with drug, read-out: ID50 LnCap
Description: (§1) To assess the utility of the subject compounds in the treatment of neoplastic cell growth, the ability of the compounds to inhibit the in vitro growth characteristics of several commonly used cancer models were studied. The subject polyamines induce cell growth inhibitions in several cultured human prostate tumor cell lines such as LnCap, DuPro, and PC-3 as determined by the accepted MTT assay (Table 2) (Hansen, M. B. et al., “Re-examination and further development of a precise and rapid dye method for measuring cell growth/cell kill,” J. Immunol. Methods (1989)119(2):203-10). […] The results with the DuPro cell line are representative of the results with human prostate cell lines.
(§2) For the data shown in Table 2, an accepted MTT assay protocol was used. A trypsinized cell suspension was diluted to seed 80 μl suspension containing 500 cells in each well of a 96 well microtiter plates and incubated overnight at 37° C. in a humidified incubator in 5% CO2. Twenty μl of appropriately diluted stock solution of each drug was added to the middle 8 columns of cell suspension in the microtiter plates. Each drug concentration was run in quadruplicate. Outer columns of the plates were used for buffer controls. Cells were incubated with the drug for 6 days at 37° C. in 5% CO2/H2O atmosphere. Twenty five μl of 5 mg/ml solution of 3-(4,5-dimethythiazol-2-yl)-2,5-diphenyl tetrazolium bromide (MTT) was added to each well and incubated for 4 hours at 37° C. in 5% CO2/H2O incubator. Cells were lysed by incubating overnight with 100 μl lysis buffer (500 ml of the lysis buffer containing: 100 g lauryl sulfate (SDS), 250 ml of N,N-dimethyl formamide in 2 ml of glacial acetic acid, pH 4.8). The color was monitored at room temperature at 570 nm in a E-max Precision Microplate Reader (Molecular Devices Corporation, Sunnyvale, Calif.) and data were analyzed using cell survival software supplied by Molecular Devices Corporation.

[2] = system: DuPro; experiment: MTT assay, cell growth inhibition, DuPro; type: cell-based; conditions: Homo sapiens, 144 h, 6 days with drug, read-out: ID50 DuPro
Description: as §1, §2

[3] = system: PC-3; experiment: MTT assay, cell growth inhibition, PC-3; type: cell-based; conditions: Homo sapiens, PC-3, 144 h, 6 days with drug, read-out: ID50 PC-3
Description: as §1, §2

[4] = system: DuPro cells; experiment: Intracellular polyamine and analog levels by HPLC of dansylated extracts; type: cell-based, human
Experimental: For data shown in Tables 3a and 3b, intracellular polyamine levels were determined using a standard protocol. About 0.5-1×10^6 cells were taken from harvested samples and centrifuged at 1000 rpm at 4° C. for 5 min. The cells were washed twice with chilled Dulbecco's isotonic phosphate buffer (pH 7.4) by centrifugation at 1000 rpm at 4° C. and resuspended in the same buffer. After the final centrifugation, the supernatant was decanted, and 250 μl of 8% sulfosalycilic acid was added to the cell pellet. The cells were then sonicated, and the mixture was kept at 4° C. for at least 1 h. After centrifugation at 8,000 g for 5 min, the supernatant was removed for analysis. An appropriate volume (50-100 μl) was fluorescence-labeled by derivatizing with dansyl chloride. Labeled polyamines were loaded onto a C-18 high-performance liquid chromatography column and separated by gradient elution with acetonitrile/water at 50° C. Peaks were detected and quantitated using a Shimadzu HPLC fluorescence monitor coupled with a Spectra-Physics peak integrator. Because polyamine levels vary with environmental conditions, control cultures were sampled for each experiment.

[5] = inorganic phosphate released from 100 μM ATP in 24 hour, 37° C.
Experimental: In a 96 well microtiter plate, the first two columns were routinely used for standard curve generation. For the standard curve, 40 μl of 0-70 μM phosphate buffer was used by serially diluting 1 mM NaH2PO4 solution in 1 N HCl. For ATP hydrolysis, the rest of the microtiter plate was equally divided into two sections to run two analogs at a time. Each section was divided into the appropriate number of columns to serially dilute each analog between 0-10 mM in 29 μl 2N HCl for the final concentration of 2 N HCl. Each drug concentration was run in quadruplicate. Equal volumes of 500 μM ATP solution (pH 7.5) were added to each well and the plates were incubated at 37° C. for appropriate lengths of time between 2-24 h. At the end of the incubation period, 160 μl of coloring agent (0.045% Malachite Green in water and 4.2% ammonium molybdate in 4 N HCl (3:1 v/v)) was added and the plates were incubated at 37° C. for another 30 mins. All plates were read at 595 nm using a Emax precision microplate reader (Molecular Device, San Jose, Calif.). A control plate containing analog solutions without ATP was created for each experiment. Control plate reading was subtracted from each experimental plate and all data was normalized to ATP hydrolysis at zero concentration of polyamine analog. The average and standard deviation for quadruplicate runs were plotted.

[6] = 1 μM analog, Day 4 of Treatment
[7] = 1 μM analog, Day 6 of Treatment
[8] = 2 μM analog, Day 4 of Treatment
[9] = 2 μM analog, Day 6 of Treatment
[10] = 0.5 μM analog, Day 4 of Treatment
[11] = 0.5 μM analog, Day 6 of Treatment

SMILES	IC50 [1]	IC50 [3]	Analog level (uptake) [4, 6]	Analog level (uptake) [4, 7]	Analog level (uptake) [4, 8]	Analog level (uptake) [4, 9]	Analog level (uptake) [4, 10]	Analog level (uptake) [4, 11]	IC50 [2]	Spm (spermine) level [4, 6]	Spm (spermine) level [4, 7]	Spm (spermine) level [4, 8]	Spm (spermine) level [4, 9]	Spm (spermine) level [4, 10]	Spm (spermine) level [4, 11]	further results
CCCCCCCCCCCCCC1CC(=O)NCCCNCCCCCNCCCN1 (stereo not drawn) [SL-11199]	1500 nM	1400 nM	–	–	17.198 nmoles/10^6 cells	10.241 nmoles/10^6 cells	26.959 nmoles/10^6 cells	26.841 nmoles/10^6 cells	1200 nM	–	–	–	–	0.002 nmoles/10^6 cells	0.003 nmoles/10^6 cells	Spd (spermidine) level [4, 11]: 0.005 nmoles/10^6 cells
NCCCNCCCCNCCCN [spermine]	–	–	–	–	–	–	–	–	–	–	–	–	–	–	–	hydrolysis of ATP [5]: lack of ATP hydrolysis

More lines, main results first:

IC50 [1]	IC50 [3]	Analog level (uptake) [4, 6]	Analog level (uptake) [4, 7]	Analog level (uptake) [4, 8]	Analog level (uptake) [4, 9]	Analog level (uptake) [4, 10]	Analog level (uptake) [4, 11]	SMILES	IC50 [2]	Spm (spermine) level [4, 6]	Spm (spermine) level [4, 7]	Spm (spermine) level [4, 8]	Spm (spermine) level [4, 9]	Spm (spermine) level [4, 10]	Spm (spermine) level [4, 11]	further results
2200 nM	600 nM	2.788 nmoles/10^6 cells	17.206 nmoles/10^6 cells	25.074 nmoles/10^6 cells	21.472 nmoles/10^6 cells	–	–	CCCCCCCCCCCCCC1CC(=O)NCCCNCCCCNCCCN1 (stereo not drawn) [SL-11174]	830 nM	0.002 nmoles/10^6 cells	0.001 nmoles/10^6 cells	0.001 nmoles/10^6 cells	0.0021 nmoles/10^6 cells	–	–	–
2600 nM	500 nM	–	–	49.072 nmoles/10^6 cells	42.341 nmoles/10^6 cells	47.566 nmoles/10^6 cells	35.913 nmoles/10^6 cells	CCCCCCCCCCCCCC1CC(=O)NCCCNCCCNCCCN1 (stereo not drawn) [SL-11197]	580 nM	–	–	–	–	0.004 nmoles/10^6 cells	0.002 nmoles/10^6 cells	–
–	1300 nM	10.089 nmoles/10^6 cells	46.776 nmoles/10^6 cells	5.989 nmoles/10^6 cells	49.309 nmoles/10^6 cells	–	–	CCCCCCCCCCCCCC1CC(=O)NCCCNCCCNCCCNCCCN1 (stereo not drawn) [SL-11200]	1400 nM	0.089 nmoles/10^6 cells	0.043 nmoles/10^6 cells	0.095 nmoles/10^6 cells	0.053 nmoles/10^6 cells	–	–	Put (putrescine) level [4, 6]: 0.004 nmoles/10^6 cells; Spd (spermidine) level [4, 6]: 0.029 nmoles/10^6 cells; Spd (spermidine) level [4, 7]: 0.014 nmoles/10^6 cells; Put (putrescine) level [4, 8]: 0.020 nmoles/10^6 cells; Spd (spermidine) level [4, 8]: 0.027 nmoles/10^6 cells; Put (putrescine) level [4, 9]: 0.011 nmoles/10^6 cells; Spd (spermidine) level [4, 9]: 0.018 nmoles/10^6 cells
